Reference: patent publication US6337417B1, “N-phenyltetrahydrophthalamic acid derivatives, methods of producing same, and herbicides containing same as effective components” (Central Glass Co., Ltd., priority 1994, dated 2002)

Legend:
Type in all cases: in vivo
Design in all cases: key: 5: completely killed; 4: seriously injured; 3: considerably injured; 2: somewhat injured; 1: slightly injured; 0: not injured (normally grown)
Settings in all cases: 4 weeks after treatment
[1] = system: aobiyu (slender amaranth, Amaranthus viridis); assay: Experiment 2 foliage treatment: aobiyu
Procedure: (§1) Upon seedling stage (two- or three-leaved stage) of rice, cockspur (Panicum crus-galli), garden radish, aobiyu (slender amaranth, Amaranthus viridis) and mehishiba (henry crabgrass, Digitaria cliaris) which were grown on a cultivated soil put in pots of 1/15500 ares, a selected compound obtained in a manner analogous to Example 8, in suspended wettable powder, was sprayed to each plant. After that, the pots were kept in a glass chamber to allow each plant to grow, and after the lapse of 4 weeks from the treatment with the selected compounds the herbicidal effects were evaluated. The evaluation of the herbicidal effects was similarly conducted as to that of Experiment 1.

rice = assay: Experiment 2 foliage treatment: rice
Procedure: as §1

paddy rice = assay: Experiment 1 flooded soil treatment: injury to paddy rice
Source text: (§2) Paddy soil (clay loam) was put into a pot so as to have a surface area of 1/15500 ares. Uniformly mixed seeds of several kinds of weeds, viz., nobie (barnyardgrass, Echinochloa spp.), broad-leaved weeds, hotarui (bulrush, Scirpus juncoides) and tamagayatsuri (small-flowered umbrellaplant, Cyperus difformis), were sown in the surface layer of the soil in each pot, and then paddy rice seedlings at the two- or three-leaved stage were transplanted into each pot to a depth of 2 cm, and water was fed into each pot so as to provide a 3 cm deep water layer on the soil surface. After 3 days, in other words at the initial stage of germination of nobie (barnyardgrass, Echinochloa spp.), a predetermined amount of a selected compound obtained in a manner analogous to Example 8 in the form of diluted aqueous solution was dropped into the water layer in each pot. After that, the pots were kept in a glass chamber to allow the paddy rice and the weeds to grow, and after the lapse of 4 weeks from the treatment with the selected compounds, the herbicidal effects and the degree of injury to the paddy rice were evaluated. In the table, the herbicidal effects and the degree of injury to the paddy rice are indicated by numerical values, which have the following meaning.
(§3) 0: not injured (normally grown)

[2] = system: tamagayatsuri (small-flowered umbrellaplant, Cyperus difformis); assay: Experiment 1 flooded soil treatment: tamagayatsuri
Source text: as §2, §3

broad-leaved weeds = assay: Experiment 1 flooded soil treatment: broad-leaved weeds
Source text: as §2, §3

garden radish = assay: Experiment 2 foliage treatment: garden radish
Procedure: as §1

[3] = system: mehishiba (henry crabgrass, Digitaria cliaris); assay: Experiment 2 foliage treatment: mehishiba
Procedure: as §1

[4] = system: hotarui (bulrush, Scirpus juncoides); assay: Experiment 1 flooded soil treatment: hotarui
Source text: as §2, §3

[5] = system: nobie (barnyardgrass, Echinochloa spp.); assay: Experiment 1 flooded soil treatment: nobie
Source text: as §2, §3

[6] = system: cockspur (Panicum crus-galli); assay: Experiment 2 foliage treatment: cockspur
Procedure: as §1

[7] = system: ooinutade (pale smartweed, Persicaria lapathifolia); assay: Experiment 3 foliage treatment: ooinutade
Procedure: as §1, with “ichibi (velvetleaf, Abutilon theophrasti), onamomi (heartleaf cocklebur, Xanthium strumarium) (4L stage), noasagao (blue morningglory, Ipomoea indica)” for “rice, cockspur (Panicum crus-galli), garden radish, aobiyu (slender amaranth, Amaranthus viridis)”, “ooinutade (pale smartweed, Persicaria lapathifolia)” for “mehishiba (henry crabgrass, Digitaria cliaris)”, “1/8850” for “1/15500”

[8] = system: noasagao (blue morningglory, Ipomoea indica); assay: Experiment 3 foliage treatment: noasagao
Procedure: as §1, with “ichibi (velvetleaf, Abutilon theophrasti), onamomi (heartleaf cocklebur, Xanthium strumarium) (4L stage), noasagao (blue morningglory, Ipomoea indica)” for “rice, cockspur (Panicum crus-galli), garden radish, aobiyu (slender amaranth, Amaranthus viridis)”, “ooinutade (pale smartweed, Persicaria lapathifolia)” for “mehishiba (henry crabgrass, Digitaria cliaris)”, “1/8850” for “1/15500”

[9] = system: ichibi (velvetleaf, Abutilon theophrasti); assay: Experiment 3 foliage treatment: ichibi
Procedure: as §1, with “ichibi (velvetleaf, Abutilon theophrasti), onamomi (heartleaf cocklebur, Xanthium strumarium) (4L stage), noasagao (blue morningglory, Ipomoea indica)” for “rice, cockspur (Panicum crus-galli), garden radish, aobiyu (slender amaranth, Amaranthus viridis)”, “ooinutade (pale smartweed, Persicaria lapathifolia)” for “mehishiba (henry crabgrass, Digitaria cliaris)”, “1/8850” for “1/15500”

[10] = system: onamomi (heartleaf cocklebur, Xanthium strumarium); assay: Experiment 3 foliage treatment: onamomi
Procedure: as §1, with “ichibi (velvetleaf, Abutilon theophrasti), onamomi (heartleaf cocklebur, Xanthium strumarium) (4L stage), noasagao (blue morningglory, Ipomoea indica)” for “rice, cockspur (Panicum crus-galli), garden radish, aobiyu (slender amaranth, Amaranthus viridis)”, “ooinutade (pale smartweed, Persicaria lapathifolia)” for “mehishiba (henry crabgrass, Digitaria cliaris)”, “1/8850” for “1/15500”

CCOC(=O)C1=C(C(=O)N(C(C)=O)c2cc(SCC(=O)OC)c(Cl)cc2F)CCCC1 [Compound No. 12]
1: Herbicidal Effect rice (rice; 40 g/10a) | Herbicidal Effect rice (rice; 80 g/10a) | Herbicidal Effect mehishiba ([3]; 40 g/10a) | Herbicidal Effect mehishiba ([3]; 80 g/10a) | Herbicidal Effect cockspur ([6]; 40 g/10a) | Herbicidal Effect cockspur ([6]; 80 g/10a)
4: Herbicidal Effect hotarui ([4]; 12.5 g/10a)
5: Herbicidal Effect aobiyu ([1]; 40 g/10a) | Herbicidal Effect aobiyu ([1]; 80 g/10a) | Herbicidal Effect tamagayatsuri ([2]; 12.5 g/10a) | Herbicidal Effect tamagayatsuri ([2]; 25 g/10a) | Herbicidal Effect broad-leaved weed (broad-leaved weeds; 12.5 g/10a) | Herbicidal Effect broad-leaved weed (broad-leaved weeds; 25 g/10a) | Herbicidal Effect garden radish (garden radish; 40 g/10a) | Herbicidal Effect garden radish (garden radish; 80 g/10a) | Herbicidal Effect hotarui ([4]; 25 g/10a) | Herbicidal Effect nobie ([5]; 12.5 g/10a) | Herbicidal Effect nobie ([5]; 25 g/10a)
0.5: Injury of Paddy (paddy rice; 12.5 g/10a) | Injury of Paddy (paddy rice; 25 g/10a)

CCC(=O)N(C(=O)C1=C(C(=O)OC)CCCC1)c1cc(SCC(=O)OC)c(Cl)cc1F [compound 16]
1: Herbicidal Effect rice (rice; 40 g/10a) | Herbicidal Effect rice (rice; 80 g/10a) | Herbicidal Effect mehishiba ([3]; 40 g/10a) | Herbicidal Effect mehishiba ([3]; 80 g/10a) | Herbicidal Effect cockspur ([6]; 40 g/10a) | Herbicidal Effect cockspur ([6]; 80 g/10a)
5: Herbicidal Effect aobiyu ([1]; 40 g/10a) | Herbicidal Effect aobiyu ([1]; 80 g/10a) | Herbicidal Effect tamagayatsuri ([2]; 12.5 g/10a) | Herbicidal Effect tamagayatsuri ([2]; 25 g/10a) | Herbicidal Effect broad-leaved weed (broad-leaved weeds; 12.5 g/10a) | Herbicidal Effect broad-leaved weed (broad-leaved weeds; 25 g/10a) | Herbicidal Effect garden radish (garden radish; 40 g/10a) | Herbicidal Effect garden radish (garden radish; 80 g/10a) | Herbicidal Effect hotarui ([4]; 12.5 g/10a) | Herbicidal Effect hotarui ([4]; 25 g/10a) | Herbicidal Effect nobie ([5]; 12.5 g/10a) | Herbicidal Effect nobie ([5]; 25 g/10a)
0.5: Injury of Paddy (paddy rice; 12.5 g/10a) | Injury of Paddy (paddy rice; 25 g/10a)

C#CCOC(=O)C1=C(C(=O)N(C(C)=O)c2cc(SCC(=O)OC)c(Cl)cc2F)CCCC1 [compound 15]
1: Herbicidal Effect rice (rice; 40 g/10a) | Herbicidal Effect rice (rice; 80 g/10a) | Herbicidal Effect mehishiba ([3]; 40 g/10a) | Herbicidal Effect mehishiba ([3]; 80 g/10a) | Herbicidal Effect cockspur ([6]; 40 g/10a) | Herbicidal Effect cockspur ([6]; 80 g/10a)
5: Herbicidal Effect aobiyu ([1]; 80 g/10a) | Herbicidal Effect tamagayatsuri ([2]; 25 g/10a) | Herbicidal Effect broad-leaved weed (broad-leaved weeds; 12.5 g/10a) | Herbicidal Effect broad-leaved weed (broad-leaved weeds; 25 g/10a) | Herbicidal Effect garden radish (garden radish; 40 g/10a) | Herbicidal Effect garden radish (garden radish; 80 g/10a) | Herbicidal Effect nobie ([5]; 12.5 g/10a) | Herbicidal Effect nobie ([5]; 25 g/10a)
0.5: Injury of Paddy (paddy rice; 25 g/10a)
4.5: Herbicidal Effect aobiyu ([1]; 40 g/10a)
0: Injury of Paddy (paddy rice; 12.5 g/10a)
4: Herbicidal Effect tamagayatsuri ([2]; 12.5 g/10a) | Herbicidal Effect hotarui ([4]; 12.5 g/10a) | Herbicidal Effect hotarui ([4]; 25 g/10a)

COC(=O)CSc1cc(N(C(=O)C2=C(C(=O)OC)CCCC2)C(=O)c2cccc(F)c2)c(F)cc1Cl [compound 19]
0: Injury of Paddy (paddy rice; 12.5 g/10a)
4: Herbicidal Effect garden radish (garden radish; 40 g/10a)
5: Herbicidal Effect aobiyu ([1]; 40 g/10a) | Herbicidal Effect aobiyu ([1]; 80 g/10a) | Herbicidal Effect tamagayatsuri ([2]; 12.5 g/10a) | Herbicidal Effect tamagayatsuri ([2]; 25 g/10a) | Herbicidal Effect broad-leaved weed (broad-leaved weeds; 12.5 g/10a) | Herbicidal Effect broad-leaved weed (broad-leaved weeds; 25 g/10a) | Herbicidal Effect garden radish (garden radish; 80 g/10a) | Herbicidal Effect hotarui ([4]; 12.5 g/10a) | Herbicidal Effect hotarui ([4]; 25 g/10a) | Herbicidal Effect nobie ([5]; 12.5 g/10a) | Herbicidal Effect nobie ([5]; 25 g/10a)
0.5: Injury of Paddy (paddy rice; 25 g/10a)
1: Herbicidal Effect rice (rice; 40 g/10a) | Herbicidal Effect rice (rice; 80 g/10a) | Herbicidal Effect mehishiba ([3]; 40 g/10a) | Herbicidal Effect mehishiba ([3]; 80 g/10a) | Herbicidal Effect cockspur ([6]; 40 g/10a) | Herbicidal Effect cockspur ([6]; 80 g/10a)

CCCCCOC(=O)C1=C(C(=O)N(C(=O)CC)c2cc(SCC(=O)OC)c(Cl)cc2F)CCCC1 [compound 17]
5: Herbicidal Effect aobiyu ([1]; 40 g/10a) | Herbicidal Effect aobiyu ([1]; 80 g/10a) | Herbicidal Effect tamagayatsuri ([2]; 12.5 g/10a) | Herbicidal Effect tamagayatsuri ([2]; 25 g/10a) | Herbicidal Effect broad-leaved weed (broad-leaved weeds; 12.5 g/10a) | Herbicidal Effect broad-leaved weed (broad-leaved weeds; 25 g/10a) | Herbicidal Effect garden radish (garden radish; 40 g/10a) | Herbicidal Effect garden radish (garden radish; 80 g/10a) | Herbicidal Effect hotarui ([4]; 25 g/10a) | Herbicidal Effect nobie ([5]; 12.5 g/10a) | Herbicidal Effect nobie ([5]; 25 g/10a)
0.5: Injury of Paddy (paddy rice; 25 g/10a)
1: Herbicidal Effect rice (rice; 40 g/10a) | Herbicidal Effect rice (rice; 80 g/10a) | Herbicidal Effect mehishiba ([3]; 40 g/10a) | Herbicidal Effect mehishiba ([3]; 80 g/10a)
0: Injury of Paddy (paddy rice; 12.5 g/10a)
2: Herbicidal Effect cockspur ([6]; 40 g/10a) | Herbicidal Effect cockspur ([6]; 80 g/10a)
4: Herbicidal Effect hotarui ([4]; 12.5 g/10a)

CCCCOC(=O)C1=C(C(=O)N(C(=O)CC)c2cc(SCC(=O)OC)c(Cl)cc2F)CCCC1 [compound 35]
2: Herbicidal Effect cockspur ([6]; 80 g/10a)
5: Herbicidal Effect aobiyu ([1]; 40 g/10a) | Herbicidal Effect aobiyu ([1]; 80 g/10a) | Herbicidal Effect garden radish (garden radish; 40 g/10a) | Herbicidal Effect garden radish (garden radish; 80 g/10a) | Herbicidal Effect ooinutade ([7]; 4 g/10a) | Herbicidal Effect ooinutade ([7]; 8 g/10a) | Herbicidal Effect noasagao ([8]; 8 g/10a) | Herbicidal Effect ichibi ([9]; 4 g/10a) | Herbicidal Effect ichibi ([9]; 8 g/10a)
1: Herbicidal Effect rice (rice; 40 g/10a) | Herbicidal Effect rice (rice; 80 g/10a) | Herbicidal Effect mehishiba ([3]; 40 g/10a) | Herbicidal Effect mehishiba ([3]; 80 g/10a) | Herbicidal Effect cockspur ([6]; 40 g/10a)
4: Herbicidal Effect noasagao ([8]; 4 g/10a) | Herbicidal Effect onamomi ([10]; 4 g/10a) | Herbicidal Effect onamomi ([10]; 8 g/10a)

CCOC(=O)C1=C(C(=O)N(C(=O)CC)c2cc(SCC(=O)OC)c(Cl)cc2F)CCCC1 [compound 33]
1: Herbicidal Effect rice (rice; 40 g/10a) | Herbicidal Effect rice (rice; 80 g/10a) | Herbicidal Effect mehishiba ([3]; 40 g/10a) | Herbicidal Effect mehishiba ([3]; 80 g/10a) | Herbicidal Effect cockspur ([6]; 40 g/10a) | Herbicidal Effect cockspur ([6]; 80 g/10a)
5: Herbicidal Effect aobiyu ([1]; 40 g/10a) | Herbicidal Effect aobiyu ([1]; 80 g/10a) | Herbicidal Effect garden radish (garden radish; 40 g/10a) | Herbicidal Effect garden radish (garden radish; 80 g/10a) | Herbicidal Effect ooinutade ([7]; 4 g/10a) | Herbicidal Effect ooinutade ([7]; 8 g/10a) | Herbicidal Effect noasagao ([8]; 8 g/10a) | Herbicidal Effect ichibi ([9]; 4 g/10a) | Herbicidal Effect ichibi ([9]; 8 g/10a) | Herbicidal Effect onamomi ([10]; 4 g/10a) | Herbicidal Effect onamomi ([10]; 8 g/10a)
4: Herbicidal Effect noasagao ([8]; 4 g/10a)
